Tests used:
Format in all cases: cell-based
[1] = system: bacterial-fouled water taken from an oil production site; test: Turbidity of bacterial-fouled oilfield water culture in synthetic brine; conditions: 600 nm after 24 hours
Protocol: A sample of a bacterial-fouled water was taken from an oil production site and used as a culture base for testing of cinnamaldehyde as a bactericide. The culture was introduced into a synthetic brine (similar to that used for oilfield operations) and turbidity was measure at 600 nm after 24 hours.

[2] = system: sulfate-reducing bacteria (SRB); test: SRB surviving 3 h treatment, serial dilution enumeration (NACE TMO 194-2004)
Source text: Following the treatment, an aliquot of each sample was serially diluted (10-fold dilutions) into culture media for SRB to enumerate the survivors according to NACE TMO 194-2004.

[3] = system: acid-producing bacteria (APB); test: Mitigation of APB growth in seawater, dilution series bottles; conditions: 600 ppm product; seawater 3% TDS; contact 20 hours; three replicate columns
Protocol: Various biocidal blends with only 50% THPS, only XC800, and different mixtures were tested, along with a control, at preventing or mitigating APB growth. The media was seawater with 3% total dissolved solids (TDS). Contact times were 20 hours and the reaction volume was 50 ml, using 8 bottles per dilution series string. APB growth was measured from 0 to 4 in logarithmic units.
In FIG. 1, it is expected that the mitigation of APB growth would generally follow a straight line (dashed in FIG. 1) from 600 ppm THPS (50%) to 600 ppm XC800.

Compound: O=CC=Cc1ccccc1 [Cinnamaldehyde, cinnamaldehyde]
- Turbidity ([1]; cinnamaldehyde 50 ppm): 1.854
- Turbidity ([1]; cinnamaldehyde 125 ppm): 0.973
- Turbidity ([1]; cinnamaldehyde 250 ppm): 0.175
- Turbidity ([1]; cinnamaldehyde 375 ppm): 0.103
- Turbidity ([1]; cinnamaldehyde 500 ppm): 0.113
- SRB Surviving Treatment ([2]; THPS 0 ppm, cinnamaldehyde 25 ppm): ≧10^10 SRB/ml
- SRB Surviving Treatment ([2]; THPS 0 ppm, cinnamaldehyde 50 ppm): ≧10^10 SRB/ml

Compound: tetrakis hydroxymethyl phosphonium sulfate [THPS]
- SRB Surviving Treatment ([2]; THPS 50 ppm, cinnamaldehyde 0 ppm): ≧10^10 SRB/ml
- SRB Surviving Treatment ([2]; THPS 100 ppm, cinnamaldehyde 0 ppm): ≧10^10 SRB/ml
- SRB Surviving Treatment ([2]; THPS 250 ppm, cinnamaldehyde 0 ppm): 10^5 SRB/ml

Compound: tetrakis hydroxymethyl phosphonium sulfate [50% THPS only]
- APB growth (0 to 4) [3]: 1 logarithmic units

— US20150038471A1, “PROCESS FOR PREVENTING OR MITIGATING BIOFOULING” (Baker Hughes Incorporated, priority 2010, published 2015)
